Data taken from patent publication US20230413816A1, “COMPOSITIONS COMPRISING ALLYL SULFIDE AND A SURFACTANT AND METHODS OF USING SAME” (The State of Israel, Ministry of Agriculture & Rural …, priority 2020, published 2023).

Experiments:
Grapevines = assay: Bud break scored on the BBCH scale, commercial vineyard in South Africa (Example 3); format: in vivo, grapevine; conditions: for bud break score (BBCH scale): 36 days after treatment, untreated score 19; for bud-breaking efficiency compared with commercially available agents (HC): sulfide compound with 2% w/w T7
Excerpt: FIGS. 5A-5B are bar graphs presenting a comparison between the bud break efficiency of the exemplary compositions of the invention and controls in vine. The X-axis represents different treatments, and the Y-axis represents vine growth stage according to the BBCH scale, as scored 36 days after treatment. FIG. 5A represents a comparison between the synergistic bud break efficiency of T7 in combination with different sulfide compounds (DADS and dimethyl sulfide, DMS). 1—untreated vines (negative control); 2—2.5% w/w DMS and 2% w/w T7; 3—5% w/w DMS and 2% w/w T7; 4—HC (positive control); 5—5% w/w DADS and 2% w/w T7. FIG. 5B represents a comparison between the synergistic bud break efficiency of 6% w/w DADS in combination with various concentrations of T7 (entries 4-7) versus controls (entries 1-2, and 8). 1—untreated vines (negative control); 2—12% w/w T7 no DADS; 3—6% w/w DADS no T7; 4—6% w/w DADS and 12% w/w T7; 5—6% w/w DADS and 1% w/w T7; 6—6% w/w DADS and 2% w/w T7; 7—6% w/w DADS and 0.5% w/w T7; 8—HC (positive control).
Grapevines in a commercial vineyard in South Africa were sprayed exemplary agricultural compositions of the invention. Two different experimental treatments have been performed on 5 blocks of 14 vines. The bud break efficiency of each treatment has been evaluated by scoring 60 buds per vine according to BBCH scale at different time points after treatment. BBCH values represent average values of five blocks per treatment. The tested exemplary agricultural compositions utilized for each experimental treatment were as follows: • 2% w/w of T7 (see Table 1) together with various concentrations (2.5, 5 and 6% w/w) of the sulfide compound ([…] (DMS); and DADS). The effect of these treatments was compared to a commercial formulation comprising 50% HC; as well as to a negative control, i.e. untreated vines. The results of this experiment are represented in FIG. 5A. • 6% w/w DADS together with various concentrations (0.5, 1, 2 and 12% w/w) of T7. The effect of these treatments was compared to a commercial formulation comprising 50% HC; as well as to negative controls including untreated plant, and plants treated with 12% w/w T7 and 6% w/w DADS, respectively. The results of this experiment are represented in FIG. 5B.

[1] = test system: spur-pruned cv. Early Sweet vines; assay: Bud breaking on whole vines in a vineyard (Example 1, Jordan Valley); format: in vivo, grapevine
Experimental: FIG. 1 is a graph presenting a comparison between the bud break efficiency of the exemplary compositions of the invention and controls, when applied to spur-pruned cv. Early Sweet vines at the beginning of January in a vineyard located at Argaman, the Jordan Valley, Israel. Bud counts were conducted once a week and started about […] after treatment. The tested combinations were as follows: (a) DADS at 6% w/w, together with (b) 2% w/w of a non-ionic surfactant (abbreviated as T3-D2, T4-D2, T5-D2, T6-D2 or T7-D2, respectively) or of a cationic surfactant (Armobreak®, abbreviated as T1-D2). The controls were as follows: (a) plants treated with Triton X-100 (abbreviated as Con), and (b) single treatments with DADS, HC, and the surfactants (abbreviated as T1, T3, T4, T5, T6 or T7, respectively). The chemical structures of the surfactants are as represented in Table 1, below. The Y-axis represents the percentage of the bursting buds out of the total number of the buds on a vine.
The Y-axis represent the percentage of bursting basal buds out of total number of spurs on a vine.
Mature spur-pruned cv. […]
Each formulation was sprayed onto five blocks of two vines, wherein the values presented in FIG. 1 are an average of the ten tested grapevines. […] Total number of buds was recorded once for each vine, and number of bursting buds were recoded for each vine at 22, 27, 34 and 41 d after treatment.

Kiwi plants = assay: Bud break trial on kiwi (Example 4); format: in vivo; conditions: 49 days after treatment
Excerpt: The inventors performed numerous experiments to assess the effect of application of an exemplary composition of the invention (e.g. about 6% w/w DADS and about 4% w/w T7) on bud break in various plants. For each test from about 500 to about 1500 l/ha of the composition have been applied (e.g. by spraying) to the orchard, to result in almost complete wetting of the treated plants. The tested plant species included kiwi, cherry, apple, and plum.

whole vine = conditions: applied to the whole vine rather than to cuttings; cited from earlier work

Compound: CSC [DMS, dimethyl sulfide]
- bud break score (BBCH scale) (Grapevines; 2.5% w/w DMS and 2% w/w T7): 24
- bud break score (BBCH scale) (Grapevines; 5% w/w DMS and 2% w/w T7): 30-31
- bud-breaking efficiency compared with commercially available agents (HC) (Grapevines): comparable with the efficiency of commercially available agents

Compound: N#CN [HC, hydrogen cyanamide]
- bud break efficiency, ranking among the treatments of FIG. 1 ([1]; 6% w/w DADS + 2% w/w surfactant, or HC, percentage of bursting buds): superior
- bud break uniformity along a spur ([1]; FIG. 3, basal buds): significantly less uniform bud break
- bud break (Kiwi plants): 24%
- bud break of HC relative to the composition of the invention (times less) (Kiwi plants): ~2 times
- green foliage coverage score (of 10) (Kiwi plants): 2

Compound: C=CCSSCC=C [DADS, diallyl disulfide]
- bud break enhancing effect compared with HC (whole vine): very limited and inferior to HC
- bud-breaking efficiency compared with commercially available agents (HC) (Grapevines): comparable with the efficiency of commercially available agents
